Measured values as given in PMC9032385, “A2A Adenosine Receptor Antagonists: Are Triazolotriazine and Purine Scaffolds Interchangeable?” (Molecules, 2022).

Tests used:
PD patients = system: PD patients; design: method as in PMID 26523919; conditions: two phase III trials, adjunct to levodopa in PD patients; cited from earlier work
A2BAR = biological target: T1, A2BAR (Homo sapiens, UniProt P29275); test: Functional study at A2BAR (GloSensor cAMP assay; inhibition of NECA-stimulated adenylyl cyclase activity); assay type: cell-based; conditions: Ki calculated from IC50 of inhibition of NECA-stimulated adenylyl cyclase activity, CHO cells
T1 construct: expressed in transfected cells
T1 sequence (P29275 1-332): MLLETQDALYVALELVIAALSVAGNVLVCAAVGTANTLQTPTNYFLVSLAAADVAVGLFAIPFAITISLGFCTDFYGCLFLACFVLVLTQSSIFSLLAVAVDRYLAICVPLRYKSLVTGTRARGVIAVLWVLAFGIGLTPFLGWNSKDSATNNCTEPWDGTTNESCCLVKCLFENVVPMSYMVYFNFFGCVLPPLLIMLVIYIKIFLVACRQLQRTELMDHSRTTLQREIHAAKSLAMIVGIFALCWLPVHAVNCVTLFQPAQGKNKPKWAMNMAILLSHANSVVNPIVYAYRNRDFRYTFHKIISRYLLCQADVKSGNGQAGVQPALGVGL
Description: (§1) The affinities of the newly synthesized compounds 7–13 and 17–21 were determined in binding studies at human recombinant A1, A2A, and A3 ARs, stably transfected in Chinese hamster ovary (CHO) cells, using [^3H]CCPA (2-chloro-N^6-cyclopentylAdo), [^3H]NECA (5′-N-ethylcarboxamidoAdo), and [^3H]HEMADO (2-hexynyl-N^6-methylAdo) as respective radioligands. Most of the compounds were also evaluated at A2BARs in a functional study using the GloSensor cAMP assay. The results are reported in Table 1 as Ki values in nM (± standard errors). In the case of A2BARs, Ki-values were calculated from IC50-values determined by the inhibition of NECA-stimulated adenylyl cyclase activity.

human recombinant A2AAR = biological target: T2, human recombinant A2AAR (Homo sapiens, UniProt P29274); test: Radioligand binding at human A2AAR ([3H]NECA displacement, CHO cell membranes); conditions: displacement of [3H]NECA, CHO membranes, n = 3–5, means ± standard errors
T2 construct: expressed in transfected cells; membrane preparation
T2 sequence (P29274 whole entry): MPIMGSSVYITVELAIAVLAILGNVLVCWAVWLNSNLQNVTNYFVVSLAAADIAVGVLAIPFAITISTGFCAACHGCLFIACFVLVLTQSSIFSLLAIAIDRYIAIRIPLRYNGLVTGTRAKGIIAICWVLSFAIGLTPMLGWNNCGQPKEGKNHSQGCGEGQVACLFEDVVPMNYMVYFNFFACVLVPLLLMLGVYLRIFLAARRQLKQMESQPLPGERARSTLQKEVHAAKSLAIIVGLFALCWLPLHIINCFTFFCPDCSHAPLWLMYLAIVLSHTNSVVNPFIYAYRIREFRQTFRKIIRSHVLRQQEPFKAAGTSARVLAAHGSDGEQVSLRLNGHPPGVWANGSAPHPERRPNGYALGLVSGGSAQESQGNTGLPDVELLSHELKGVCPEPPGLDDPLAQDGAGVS
Description: Most of the compounds were also evaluated at A2BARs in a functional study using the GloSensor cAMP assay. […] In the case of A2BARs, Ki-values were calculated from IC50-values determined by the inhibition of NECA-stimulated adenylyl cyclase activity.
Preparation of membranes: Cell membranes for binding assays were prepared mechanically detaching the cells from the petri and suspending them in a cold hypotonic buffer (5 mM Tris/HCl, 2 mM EDTA, pH 7.4). The cell suspension was homogenized (Ultra-Turrax, 2 × 15 s at maximum speed) and the homogenate centrifuged for 10 min (4 °C) to 1000× g. […] The amount of the protein suspension was determined according to the […] using the BCA Protein Assay Kit (Pierce), frozen in liquid nitrogen, and stored at −80 °C.
(§2) Binding assays: The dissociation constants of the radioligand (KD) were calculated through saturation assays, while the dissociation constants of the compounds under study (Ki) were determined by competition experiments. All binding data were calculated by nonlinear regression curves using the software GraphPad Prism 5 (GraphPad Software, San Diego, CA, USA). The increasing concentrations of the radioligand saturation binding ([^3H]-CCPA for the A1 receptor subtype, [^3H]-NECA for the A2A receptor subtype, and [^3H]-HEMADO for the A3 receptor) subtype were incubated in a total volume of 250 μL containing 0.2 U/mL of Ado deaminase (ADA) and 12 micrograms of membrane proteins in the specific buffer. In competition experiments for the A1 receptor subtype, each compound was added at increasing concentrations, to the well containing 1 nM of [^3H]-CCPA, to a final volume of 200 μL. The samples were left to incubate for 3 h at room temperature, filtered in a filter 96-well plate (UniFilter GF/C, Perkin-Elmer Life and Analytical Science, Boston, MA) using the FilterMate Cell Harvester (Perkin-Elmer), and washed 3 times with cold distilled water. After drying the filter plate at 40 °C for 30′, they 20 μL of scintillating liquid (Microscint-20, Perkin-Elmer) was added to each well, and then the radioactivity was quantized with the MicroBeta2 Plate Counter (Perkin-Elmer). The conditions for binding experiments at A2A and A3 receptor subtypes were essentially the same as for the A1AR using [^3H]-NECA (N-ethylcarboxyamideAdo) at a concentration of 10 nM and [^3H]-HEMADO (2-(1-hexyne)-N^6-methylAdo) at a concentration of 1 nM as radioligands, respectively. The samples were incubated with 12 micrograms of protein for 3 h at room temperature and filtered as described above.
(§3) The non-specific binding was determined in the presence of 1 mM theophylline for the A1AR, or 100 µM R-PIA (N^6-(1-methyl-2-phenylethyl)Ado) for the A2A and A3 receptors.

human recombinant A3AR = biological target: T3, human recombinant A3AR (Homo sapiens, UniProt P0DMS8); test: Radioligand binding at human A3AR ([3H]HEMADO displacement, CHO cell membranes); conditions: displacement of [3H]HEMADO, n = 3–5, means ± standard errors
T3 construct: expressed in transfected cells; membrane preparation
T3 sequence (P0DMS8 1-318): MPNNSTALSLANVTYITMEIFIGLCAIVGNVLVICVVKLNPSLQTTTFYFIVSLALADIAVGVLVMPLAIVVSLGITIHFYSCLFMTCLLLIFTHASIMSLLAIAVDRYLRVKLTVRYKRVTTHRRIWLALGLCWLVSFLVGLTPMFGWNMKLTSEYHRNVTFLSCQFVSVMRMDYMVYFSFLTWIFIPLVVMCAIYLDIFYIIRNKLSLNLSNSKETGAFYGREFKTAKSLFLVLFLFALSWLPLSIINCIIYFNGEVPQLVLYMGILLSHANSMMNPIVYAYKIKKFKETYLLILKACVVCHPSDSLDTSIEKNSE
Description: as §1
(§4) Cell culture: The Chinese hamster ovary cells (CHO) stably transfected with the desired ARs were grown in DMEM/F12 medium containing 10% FBS (fetal bovine serum), 100 U/mL penicillin, 100 µg/mL streptomycin, 2.5 μg/mL amphotericin B, 1 mM sodium pyruvate, 0.1 mg/mL genetecina (G418), and incubated at 37 °C in a gaseous mixture of 5% CO2: […].
(§5) Preparation of membranes: Cell membranes for binding assays were prepared mechanically detaching the cells from the petri and suspending them in a cold hypotonic buffer (5 mM Tris/HCl, 2 mM EDTA, pH 7.4). The cell suspension was homogenized (Ultra-Turrax, 2 × 15 s at maximum speed) and the homogenate centrifuged for 10 min (4 °C) to 1000× g. The supernatant was subsequently centrifuged for 30 min (4 °C) at 100,000× g and the pellet containing the membrane proteins was re-suspended in a specific buffer for each receptor subtype (A1: 50 mM Tris/HCl, pH 7.4; A2A: 50 mM Tris/HCl, 10 mM MgCl2, pH 7.4; A3: 50 mM Tris/HCl, 10 mM MgCl2, 1 mM EDTA, pH 8.25). The amount of the protein suspension was determined according to the […] using the BCA Protein Assay Kit (Pierce), frozen in liquid nitrogen, and stored at −80 °C.
as §2, §3

human recombinant A1AR = biological target: T4, human recombinant A1AR (Homo sapiens, UniProt P30542); test: Radioligand binding at human A1AR ([3H]CCPA displacement, CHO cell membranes); conditions: displacement of [3H]CCPA, n = 3–5, means ± standard errors
T4 construct: expressed in transfected cells; membrane preparation
T4 sequence (P30542 1-326): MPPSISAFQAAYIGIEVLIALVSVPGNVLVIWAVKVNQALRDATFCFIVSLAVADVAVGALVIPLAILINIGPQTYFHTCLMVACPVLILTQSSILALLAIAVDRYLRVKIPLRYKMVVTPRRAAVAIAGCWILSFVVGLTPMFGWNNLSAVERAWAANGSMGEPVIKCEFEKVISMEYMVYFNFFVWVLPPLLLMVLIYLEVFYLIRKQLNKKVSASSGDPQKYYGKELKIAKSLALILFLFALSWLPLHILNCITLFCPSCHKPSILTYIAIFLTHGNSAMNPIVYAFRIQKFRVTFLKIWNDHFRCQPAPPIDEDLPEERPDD
Description: as §1, §4, §5, §2, §3

Row | SMILES | efficacy versus placebo (PD patients) | Ki (A2BAR) [µM] | Ki (human recombinant A2AAR) [µM] | Ki (human recombinant A3AR) [µM] | Ki (human recombinant A1AR) [µM] | melting point
1 | COCCOc1ccc(N2CCN(CCn3ncc4c3nc(N)n3nc(-c5ccco5)nc43)CC2)cc1 [Preladenant] | efficacy was not significantly higher than the placebo | – | – | – | – | –
2 | CCn1cnc2c(N)nc(NCCc3ccc(OC)cc3)nc21 [compound 7, 9-Ethyl-N^2-(4-methoxyphenethyl)-9H-purine-2,6-diamine] | – | > 30 | 1.46 | 23.6 | 5.84 | –
3 | CCOc1nc2nc(SC)nc(N)n2n1 [compound 18, 2-Ethoxy-5-(methylthio)-[1,2,4]triazolo[1,5-a][1,3,5]triazin-7-amine] | – | – | 0.583 | 9.72 | 4.57 | 220 °C (dec.)
4 | CCn1c(Br)nc2c(N)nc(NCCc3ccc(O)cc3)nc21 [compound 9, 4-(2-((6-Amino-9-ethyl-8-bromo-9H-purin-2-yl)amino)ethyl)phenol] | – | 0.393 | 0.044 | 3.81 | 0.411 | –
5 | CCn1c(-c2ccco2)nc2c(N)nc(NCCc3ccc(OC)cc3)nc21 [compound 12, 9-ethyl-8-(furan-2-yl)-N^2-(4-methoxyphenethyl)-9H-purine-2,6-diamine] | – | > 30 | 0.001 | 0.016 | 0.0026 | –
6 | CCn1c(O)nc2c(N)nc(NCCc3ccc(O)cc3)nc21 [compound 11] | – | > 30 | > 30 | > 30 | 7.05 | –
7 | CCn1c(O)nc2c(N)nc(NCCc3ccc(OC)cc3)nc21 [compound 10] | – | > 30 | > 30 | 0.777 | 1.39 | –
8 | CCOc1nc(N)n2nc(OCC)nc2n1 [compound 19, 2,5-diethoxy-[1,2,4]triazolo[1,5-a][1,3,5]triazin-7-amine] | – | – | 1.06 | 4.79 | 6.36 | –
9 | CCn1c(Br)nc2c(N)nc(NCCc3ccc(OC)cc3)nc21 [compound 8, 8-Bromo-9-ethyl-N^2-(4-methoxyphenethyl)-9H-purine-2,6-diamine] | – | 4.26 | 0.034 | 4.03 | 0.545 | –
10 | CSc1nc(N)n2nc(S(C)(=O)=O)nc2n1 [compound 17, 2-(Methylsulfonyl)-5-(methylthio)-[1,2,4]triazolo [1,5-a][1,3,5]triazin-7-amine] | – | – | 3.24 | 14.7 | 5.72 | –
